# Experimental data published in patent EP1861101B1, “USE OF AMIDES OF SULFADIMIDINE FOR THE TREATMENT OF INTESTINAL DISEASES IN VETERINARY SCIENCE” (priority 2005, dated 2006).
# Where two headings read alike, the source gives them in different places.
# How the values were obtained:
# digestive syndrome = test: prevention and treatment of digestive syndrome (colibacillosis and enterotoxemia) in rabbit farming; assay type: in vivo; conditions: rabbits
# Description: Given the complex relations existing between colibacillosis and enterotoxemia, they are currently included under the designation "digestive syndrome" for practical purposes. Treatment with an association of systemic drugs with drugs acting exclusively on the intestinal tract is indicated.
# In the following table 2 the use of SMAA is compared to the products used most often in rabbit farming for the prevention and treatment of digestive syndrome: Table 2
# [1] = growth feed for swine; cited from earlier work
# [2] = test system: Clostridium, E. coli, and Salmonella; test: treatment of ovine livestock with soluble SMAA in drinking water; assay type: in vivo
# Method: In another preferred embodiment of the invention, soluble SMAA is applied with drinking water. This application is especially useful for the treatment of enteric bacterial processes, mainly Clostridium, E. coli, and Salmonella. […] Incompatibilities with other medicaments are unknown. A withdrawal period before slaughter is not necessary. When non-absorbable derivatives of sulfadimidine are added to drinking water, they are not often associated with other molecules. […] The usual dose ranges from 550-1100 g/2000 liters of water for 4 to 6 days. The availability of a soluble form makes it possible to administer the product in a milk substitute. In this case the dosage should be established in relation to the consumption of powdered milk substitutes.
# solubility in water = assay type: physicochemical
# Description: If the amide is the amide of maleic acid (SMAA), the amide comprises one carboxylic group. […] The free acids of the compound of the invention are essentially water insoluble and electrically neutral compounds, which become soluble in water when the free carboxyl group or other groups in the compound are converted to the carboxylate form by addition of an equivalent amount of an appropriate base, for instance an alkali or ammonium hydroxide or amine or alkanolamine.
# C. perfringens = assay type: in vivo, lambs; conditions: 500 g/ton of feed
# [3] = depletion of residue in lambs fed treated feed until the day of slaughter; assay type: in vivo; conditions: lambs that consumed treated feed until the day of slaughter
# [4] = test system: Clostridium, E. coli, Salmonella, and Eimeria parasites; test: treatment of ovine livestock with SMAA in food; assay type: in vivo; conditions: even at high doses
# Description: In general, ovine livestock according to the invention is preferably treated with SMAA in food. The invention is especially useful for the prevention of enteric bacterial processes, mainly due to Clostridium, E. coli, Salmonella, and Eimeria parasites. […] Incompatibilities with other medicaments are unknown. It is not necessary to establish a withdrawal period before slaughter.
# According to the invention, the association of SMAA-chlortetracycline is preferred when the pathology is located fundamentally in the digestive tract, and the association of SMAA-oxytetracycline when a preventive action at the enteric and respiratory level is sought. The most habitual doses range from 200 and 400 g/ton of feed, although it can be raised to 750 g/ton without problems.
# Eimeria = test: field tests, treatment of coccidiosis in broilers through feed; assay type: in vivo; conditions: 200 to 400 g/metric ton of feed; given in the first three weeks of life, then replaced by another coccidiostatic
# Method: SMAA was used for the treatment of coccidiosis in broilers through feed, at doses ranging from 200 to 400 g/metric ton of feed. The best results in terms of mortality, weight gain, and conversion index have been obtained when SMAA is administered in the first three weeks of life of the chickens, and then replaced by another coccidiostatic. To this effect, our experience confirms the observations that an even improved productivity is obtained when two different coccidiostatics are alternated in the growth period.
# [5] = test system: digestive bacterial diseases in pigs; test: SMAA in feed against enteric processes in swine; assay type: in vivo; conditions: 400-600 g per ton of feed
# Serpulina hyodisenteriae = test: SMAA in feed against swine dysentery; assay type: in vivo; conditions: 550-600 g per ton of feed
# Description: Although establishing a dose for the administration of a therapeutic molecule is always difficult, because therapeutic efficacy not depend only on its efficacy at a given dose, but also on the state of the animals, management, sanitary conditions of operation, feeding etc., good results were obtained with SMAA in swine at doses of 550-600 g of SMAA per ton of feed. The association of SMAA with macrolides is interesting, but it is extremely important to consider the withdrawal period of the macrolide to avoid the accumulation of residues in carcasses.
compound,measurement,setting,value
Neomycin,Observations,digestive syndrome; efficacy remark,Efficacious against moderately pathogenic strains.
COc1cc(NS(=O)(=O)c2ccc(N)cc2)nc(OC)n1 [Sulfadimethoxine],Observations,"Coccidia; efficacy remark, rabbits",Very interesting in mixed infections
same,Observations,"Coccidia; rabbit, in vivo",requires a period of withdrawal before slaughter
"Cc1cc(C)nc(NS(=O)(=O)c2ccc(N)cc2)n1 [Sulfadimidine, 2-(4-aminobenzenesulfonamido)-4,6-dimethylpyrimidine]",Observations,"Coccidia; effect on mortality, rabbits",This treatment curtails mortality
same,withdrawal period,[1],28 days
Colistin,Observations,digestive syndrome; effect on mortality,Colistin reduces mortality
Cc1cc(C)nc(NS(=O)(=O)c2ccc(NC(=O)/C=C\C(=O)O)cc2)n1 [soluble SMAA],dysbacteriosis,[2]; even at high doses,no problems of dysbacteriosis have appeared
same,treatment of coccidiosis outbreaks,[2]; usually 4 to 6 days,highly effective
same,solubility in water,solubility in water; listed as sodium salt,essentially soluble
"Cc1cc(C)nc(NS(=O)(=O)c2ccc(NC(=O)/C=C\C(=O)O)cc2)n1 [SMAA, 4,6-dimethyl-2-N^4-maleylsulfanilamidopyrimidine]",Observations,digestive syndrome; duration of treatment and toxicity,Treatment can be prolonged without risk of toxicity
same,Observations,digestive syndrome; effect on mortality,This treatment curtails mortality
same,Observations,digestive syndrome; efficacy remark,The most effective agent in mixed infections by Coccidia
same,mortality,"C. perfringens; end of trial (4 weeks), due to undetermined causes",lower than 0.3%
same,enterotoxemia in the livestock,"C. perfringens; end of trial (4 weeks), five thousand lambs, richer feed (1.03 UFC)",absent
same,"watery diarrhea caused by E. coli, Salmonella dysentery, or coccidiosis",C. perfringens; trial of 4 weeks,no case
same,residue level in meat,[3],below 30 ppb
same,dysbacteriosis,[4],no problems of dysbacteriosis have appeared
same,"mortality, weight gain, and conversion index",Eimeria,best results
same,results in swine,[5],good results
same,results in swine,Serpulina hyodisenteriae,good results
same,solubility in water,solubility in water; listed as free acid of SMAA,essentially insoluble
same,Observations,"Coccidia; efficacy remark, rabbits",most effective in mixed infections with E. coli
same,Observations,"Coccidia; rabbit, in vivo","Treatment can be extended up to 3 weeks, if given in low doses, without risk of toxicity or residues in carcasses"
CCN1CCN(c2cc3c(cc2F)c(=O)c(C(=O)O)cn3C2CC2)CC1 [Enrofloxacin],Observations,digestive syndrome; efficacy remark,Effective
O=C1OCCN1/N=C/c1ccc([N+](=O)[O-])o1 [Furazolidone],Observations,digestive syndrome; efficacy remark,Effective.
COc1cc(NS(=O)(=O)c2ccc(NC(=O)/C=C\C(=O)O)cc2)nc(OC)n1 [Sulfadimethoxine maleic acid amide],Observations,"Coccidia; efficacy remark, rabbits",Very interesting in mixed infections
same,Observations,"Coccidia; rabbit, in vivo",Treatments can continue for 21 days without risk of toxicity or residues in carcasses
